According to US9994644B2, “mAB 2 anti-Met antibody” (Agency for Science, Technology and Research, priority 2013, dated 2018):

B1: MetMab: monovalent chimeric antibody targeted against c-Met (antibody, chains of the INN, looked up, V domains shown)
VH: EVQLVESGGGLVQPGGSLRLSCAASGYTFTSYWLHWVRQAPGKGLEWVGMIDPSNSDTRFNPNFKDRFTISADTSKNTAYLQMNSLRAEDTAVYYCATYRSYVTPLDYWGQGTLVTVSS
VL: DIQMTQSPSSLSASVGDRVTITCKSSQSLLYTSSQKNYLAWYQQKPGKAPKLLIYWASTRESGVPSRFSGSGSGTDFTLTISSLQPEDFATYYCQQYYAYPWTFGQGTKVEIK
modifications: one-armed monovalent
notes: monovalent chimeric antibody targeted against c-Met

Key:
[1] = test system: mAb 2; test: Alanine scan ELISA and mAb 2 titration against peptides; format: binding, murine; conditions: for mAb 2 binding to alanine-substituted peptide: 0.05 μg/mL mAb 2, 1 mM DTT; for Increase mAb 2 binding in ascending order: titration of purified mAb 2 against peptides, 1 = least binding
Method: Variations of peptides O28 and O29, where each amino acid residue was sequentially substituted for an alanine residue, were synthesised. Streptavidin-coated plates (Pierce/Thermo Scientific, #15520) were blocked with 3% BSA/PBS at room temperature. The peptides were dissolved in DMSO and stored according to manufacturer's recommendation. Streptavidin-coated plates were coated with each peptide (5 μg/mL) overnight at room temperature. Wells were washed before hybridoma supernatant or purified monoclonal antibody was added to the each well. HRP-conjugated anti-mouse antibody was added to detect bound monoclonal antibodies. ELISA substrate (Bio-Rad #172-1067) solution was prepared freshly according to the manufacturer's instructions and added to the wells. Colour change was monitored by eye and the reaction was stopped by adding 100 mM sulphuric acid. Absorbance was read at 450 nm in a microplate reader (SPECTRAmax PLUS^384, Molecular Device, U.S.A.). The crystal structure of c-Met extracellular domain, accession number 1 SHY, was obtained from Protein Data Base (PDB). Computer imaging of the epitopes were analysed by PyMol (DeLano Scientific LLC, U.S.A.) software.
To identify residues within peptides O28 and O29 that are crucial for mAb 2-Met interaction, an alanine scan was performed. Variations of peptide O28 and O29, where each amino acid residue was sequentially substituted for an alanine residue, were synthesised (Table 3). Peptides P1 to P16 (with the SEQ II) NO: […]) and P17 to P31. (with the SEQ ID NO: 40 to 56) were derived from the original peptide O28 and O29 respectively. Using the same ELISA-based assay described above, synthesised peptides were added to streptavidin-coated wells and purified mAb 2 was added to each peptide containing well. mAb 2 binding was determined by absorbance reading at […]. […] Peptide O27, peptide O1 and no peptide were used as negative controls.
The substituted amino acid residues in these peptides are thus involved in mAb 2 epitope. […] This is supported by the loss of mAb 2 binding due to the substitution of proline by alanine in peptides P14, P25 and P10. To determine which residues play a more crucial role in mAb 2 binding, mAb 2 was titrated against the peptides (FIG. 12B). […] These residues are not consecutive residues.

[2] = biological target: c-Met (Homo sapiens, UniProt P08581); conditions: background statement; cited from earlier work
c-Met (Homo sapiens, UniProt P08581), sequence (P08581 25-307): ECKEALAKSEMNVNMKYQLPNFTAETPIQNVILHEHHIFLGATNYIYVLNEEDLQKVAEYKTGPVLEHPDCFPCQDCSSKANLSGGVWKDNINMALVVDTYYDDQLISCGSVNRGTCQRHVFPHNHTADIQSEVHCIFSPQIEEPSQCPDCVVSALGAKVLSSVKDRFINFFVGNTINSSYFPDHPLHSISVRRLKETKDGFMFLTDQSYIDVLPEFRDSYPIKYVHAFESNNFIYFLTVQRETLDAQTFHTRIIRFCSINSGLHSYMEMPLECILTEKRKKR
c-Met (Homo sapiens, UniProt P08581), sequence (P08581 308-1390): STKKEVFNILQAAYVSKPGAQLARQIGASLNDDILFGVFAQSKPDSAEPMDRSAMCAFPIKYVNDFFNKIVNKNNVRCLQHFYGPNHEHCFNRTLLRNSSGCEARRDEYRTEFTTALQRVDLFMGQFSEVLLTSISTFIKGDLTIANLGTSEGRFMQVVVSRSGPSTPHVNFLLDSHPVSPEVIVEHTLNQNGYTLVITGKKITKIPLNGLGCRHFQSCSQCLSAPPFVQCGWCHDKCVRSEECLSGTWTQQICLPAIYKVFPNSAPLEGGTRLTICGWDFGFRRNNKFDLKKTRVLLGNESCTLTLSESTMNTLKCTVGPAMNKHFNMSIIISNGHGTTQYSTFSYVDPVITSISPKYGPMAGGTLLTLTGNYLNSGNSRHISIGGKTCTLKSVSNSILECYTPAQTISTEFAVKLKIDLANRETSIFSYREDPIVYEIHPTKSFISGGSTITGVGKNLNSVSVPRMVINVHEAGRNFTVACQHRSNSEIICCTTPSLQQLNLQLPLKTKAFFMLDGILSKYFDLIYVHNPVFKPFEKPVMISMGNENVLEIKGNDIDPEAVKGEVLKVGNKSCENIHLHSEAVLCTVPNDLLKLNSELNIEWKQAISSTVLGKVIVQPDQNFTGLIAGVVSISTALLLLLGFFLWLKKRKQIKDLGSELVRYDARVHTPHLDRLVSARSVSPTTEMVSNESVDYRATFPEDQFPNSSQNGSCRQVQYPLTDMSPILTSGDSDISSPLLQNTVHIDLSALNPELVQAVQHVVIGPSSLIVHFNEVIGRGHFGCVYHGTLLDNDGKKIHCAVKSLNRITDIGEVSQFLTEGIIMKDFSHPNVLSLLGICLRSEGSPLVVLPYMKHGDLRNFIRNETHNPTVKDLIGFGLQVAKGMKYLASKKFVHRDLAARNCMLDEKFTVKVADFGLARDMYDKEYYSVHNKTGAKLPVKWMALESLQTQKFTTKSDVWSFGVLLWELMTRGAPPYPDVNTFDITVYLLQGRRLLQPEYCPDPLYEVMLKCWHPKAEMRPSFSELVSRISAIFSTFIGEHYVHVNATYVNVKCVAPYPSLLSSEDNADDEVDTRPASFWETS

[3] = test system: c-Met; conditions: background statement; cited from earlier work
[4] = test system: caspase activation in SNU-5 cells; test: Caspase-Glo 3/7 caspase activation assay; format: cell-based, human; conditions: SNU-5, 72 hrs; mAb 10 μg/mL, SU11274 5 μM
Method: (§1) In order to determine if these antibodies have any physiological effects on tumour cells, 10 μg/mL of mAb was added to SNU-5 cells. […] This indicates SU11274 mode of mechanism is by activation of caspase which in turn result in apoptosis of SNU-5 tumour cells.
(§2) CellTiter-Glo® luminescent cell viability assay and Caspase-Glo® 3/7 Assay (Promega, U.S.A.) were used to determine cell viability and caspase activation respectively. SNU-5 cells (1×10^5 cells) were seeded in each 96-well and treated for 72 hrs before analysis. Cell viability and caspase activation were performed according to manufacturer's protocol. Luminescence was read using the EnVision plate reader (PerkinElmer, U.S.A.).

[5] = test system: HaCaT cells; test: Cell scatter assay; format: cell-based; conditions: 10 ng/mL HGF, controls
Method: Cell scattering is one of the biological hallmarks of c-Met activation. Agonist bivalent monoclonal antibodies targeting c-Met would activate c-Met and cause cells to become motile and disperse. Here, we examine the effects of purified anti-α-chain c-Met monoclonal antibodies on cell scatter. HaCaT cells were seeded at low density and allowed to grow until colonies formed. Cells were serum-starved for 24 hrs before incubating with 1 μg/mL monoclonal antibodies for 24 hrs. Cells were then fixed and stained with crystal violet. As a control, cell scatter of HaCaT cells was induced with 10 ng/mL of HGF (FIG. 5). […] Anti-HGF antibody and SU11274 were used as controls. SU11274 is a small molecule inhibitor of c-Met.
100-200 HaCaT cells were seeded in 24-well plates and allowed to grow until small colonies were formed (approximately 7 days). Cells were serum-starved for 24 hrs. Cells were incubated with purified monoclonal antibodies (1 μg/mL) for 24 hrs before rinsing twice in cold PBS and fixing in ice-cold methanol. Cells were then stained in 1% crystal-violet (Sigma-Aldrich) solution. Cell staining was observed using Zeiss Axiovert 25 inverted microscope and pictures were taken using a Canon EOS 1000 D camera.

[6] = test system: SNU-5 cells; test: CellTiter-Glo luminescent cell viability assay; format: cell-based, human; conditions: SNU-5, 72 hrs; mAb 10 μg/mL, SU11274 5 μM
Method: as §1, §2

Molecule | mAb 2 binding to alanine-substituted peptide [1] | Increase mAb 2 binding in ascending order [1] | further results
CIFSPQIEEASQCPD [P10, alanine-substituted variant of peptide O28] | failed to bind | 7 | –
Cc1[nH]c(/C=C2\C(=O)Nc3ccc(S(=O)(=O)Cc4c(Cl)cccc4Cl)cc32)c(C)c1C(=O)N1CCC[C@@H]1CN1CCCC1 [PHA-665752] | – | – | inhibition of c-Met activation [2]: extremely successful
CIFSPQAEEPSQCPD [P7, alanine-substituted variant of peptide O28] | failed to bind | 8 | –
Cc1[nH]c(/C=C2\C(=O)Nc3ccc(S(=O)(=O)N(C)c4cccc(Cl)c4)cc32)c(C)c1C(=O)N1CCN(C)CC1 [SU11274] | – | – | activity against specific c-Met mutations [3]: ineffective; inhibition of c-Met activation [2]: extremely successful; caspase activation [4]: high caspase activation; HGF-induced cell scatter [5]: remained circular; cell viability [6]: significant reduction
AIEEPSQCPDCVVSA [P17, alanine-substituted variant of peptide O29] | failed to bind | 5 | –
COc1cc2c(Oc3ccc(-c4cnc(Cc5ccccc5)n(C)c4=O)cc3F)ccnc2cc1OCCCN1CCOCC1 [AM7] | – | – | inhibition of c-Met activation [2]: extremely successful
CIFSPQIEEPSQCPA [P15, alanine-substituted variant of peptide O28] | failed to bind | 10 | –
QIEEPSQCADCVVSA [P25, alanine-substituted variant of peptide O29] | failed to bind | 3 | –
QIEAPSQCPDCVVSA [P20, alanine-substituted variant of peptide O29] | failed to bind | 9 | –
QIAEPSQCPDCVVSA [P19, alanine-substituted variant of peptide O29] | failed to bind | 6 | –
CIFSPQIEEPSQCAD [P14, alanine-substituted variant of peptide O28] | failed to bind | – | –
QIEEPSQCPDCVVSA [O29, pepscan peptide of human c-Met α-chain] | – | 11 | –
CIFSPQIEEPSQCPD [O28, pepscan peptide of human c-Met α-chain] | – | 11 | –
AIFSPQIEEPSQCPD [P1, alanine-substituted variant of peptide O28] | failed to bind | – | –
CIFSPQIAEPSQCPD [P8, alanine-substituted variant of peptide O28] | failed to bind | – | –
CIFSPQIEAPSQCPD [P9, alanine-substituted variant of peptide O28] | failed to bind | 4 | –
B1 | – | – | agonist/antagonist activity towards c-Met [2]: antagonist
